*1 amine or outer side, *2 acyl side, *3 side chain or, on linkers, in order; H or OH if unused. Where a SMILES comes first, the peptide text is derived from it. Bridges are numbered along the chain shown (N, C = ends). [ ]: non-standard residue; d: D form. The star is where a group is joined. TBMB = c1c(C[*:1])cc(C[*:3])cc1C[*:2]; NHDecyl = CCCCCCCCCCN*
Legend:
C55-PP = assay: Antagonization assay with C55-PP; format: cell-based, M. luteus; set-up: key to Result with antagonist C55-PP: +: antagonization of antibiotic activity; -: no antagonization of antibiotic activity; conditions: for Result with antagonist C55-PP: Supplemental table S10, peptide at 4x MIC, M. luteus, 16 h at 30°C, growth observed visually; for Effect of adding C55-PP on antibiotic activity: antagonization experiment using C55-PP
Description: To assess the role of lipid II in the mode of action of the lipopeptides a lipid II antagonization assay was employed.[18],[33] This assay was performed by premixing P8-D-C10 or the optimized P8-D-(S6R, R15A)-C10 with an excess of lipid II prior to addition of a live culture of M. luteus. […] To probe the stereochemical aspects of lipid II recognition by the optimized P8-D-(S6R, R15A)-C10 lipopeptide we also prepared and tested the corresponding enantiomeric L-peptide species P8-L-(S6R, R15A)-C10. […] Given that lipid II is a chiral biomolecule we had expected the enantiomeric lipopeptides to have different activities based on the assumption that they would interact differently with lipid II. To further investigate this phenomenon we employed the same lipid II antagonization assay described above. […] To explain this observation we hypothesize that the two enantiomeric peptides interact primarily with the pyrophosphate moiety of lipid II and are therefore less influenced by the chiral elements present elsewhere in the lipid II molecule. The pyrophosphate group is known to be a binding site for many natural occurring lipid II binding peptides.[15],[16] […] To test the hypothesis that both the P8-D-(S6R, R15A)-C10 and P8-L-(S6R, R15A)-C10 lipopeptides interact with the pyrophosphate moiety we performed an additional antagonizaiton experiment using C55-PP.
(§1) Section 4 Biological and biochemical experiments
(§2) 4.1 Minimum inhibitory concentration assay
(§3) MIC values were determined by using the broth microdilution method. Peptides were dissolved first in DMSO and diluted with broth so that the final peptide concentration was 1024 µg/ml and the DMSO concentration was 4%. Peptide serial dilutions were made in TSB in a polypropylene 96-wells plate using 50 µl volumes. An overnight culture of the organism of interest was diluted to and OD600 of 0.01 and grown until they reach 0.5. The culture was then diluted to 1 x 10^6 CFU/ml and 50 µl of this suspension was added to each well. The highest concentrations were then 512 µg/ml peptide and 2% DMSO. The plates were incubated at the preferred growth temperature of the organism that was used and 250 rpm. […] When […]
(§4) determining the MICs of the lipidated peptides, the lipopeptides were first dissolved in DMSO and diluted with TSB so that the peptide concentration was 128 µg/ml and the DMSO concentration was 4%. After inoculation the highest peptide concentration evaluated was 64 µg/ml and the DMSO concentration was 2%. A DMSO control was tested for each strain to ensure the DMSO did not affect the growth of the particular strain. […]
(§5) 4.4 Antagonization assays
(§6) Stock solutions of each peptide antibiotic were prepared so that their final concentration in the assay would be 4x MIC. Peptides were transferred to a 96 wells plate and lipid II or C15-P (farnesyl-phosphate) was added at 4 molar equivalents in a final volume of 50 µl. Each well received 50 µl of bacterial suspension (M. luteus) at 1 x 10^6 CFU/ml and the plates were incubated for 16 h at 250 rpm and 30°C. Growth was observed visually (see supplemental table S10 for results).

[1] = system: C15-P (farnesyl-phosphate); assay: Antagonization assay with C15-P (negative control); format: cell-based; set-up: key: +: antagonization of antibiotic activity; -: no antagonization of antibiotic activity; conditions: Supplemental table S10, peptide at 4x MIC, 4 molar equivalents, M. luteus, 16 h at 30°C, growth observed visually
Description: as §1, §2, §3, §4, §5, §6
Supplemental table S10. Lipid II antagonization assay results
Result with indicated antagonista
Antibiotic compound Lipid II C55-PP C15-Pb […]
a + = antagonization of antibiotic activity; - = no antagonization of antibiotic activity; b C -P was used as a negative […]
control (C15-P is a watersoluble analogue of the lipid II precursor undecaprenol phosphate).
4.6 Scanning Electron Microscopy
E. faecium E155 was inoculated at an OD600nm of 0.05 into 300 µL of cation adjusted TSB containing P8-D-(S6R, R15A)-C10 or nisin at (both a 2x MIC) along with 1% glucose and 1%
DMSO. An untreated culture was used as control. Following overnight incubation (ca. 16 hr) bacterial cells were fixed for 15 minutes with 1% (v/v) glutaraldehyde in phosphate buffered saline (PBS) at room temperature on poly-L-lysine covered glass slides (12 mm diameter). […]

Sheep blood = assay: Hemolysis assay; format: cell-based; conditions: Supplemental table S9; 1 hour incubation at 37 °C, lipopeptides at 32 µg/mL
Description: Sheep blood in Alsever’s solution (2 mL) was diluted with PBS (13 mL) and centrifuged (2,000 RPM, 5 min). The supernatant was discarded and the cells were washed with another 13 mL of PBS and centrifuged. Washing was continued until the supernatant was clear. After the final wash the supernatant was discarded and the packed cells were kept on ice. Serial dilutions of each peptide were made in 50 µl PBS with the highest tested concentration 64 µg/mL in PBS, 2%
DMSO. The packed cells (150 µL) were suspended in PBS (10 mL) and 50 µL of this suspension was added to each well. A well plate column containing 0.1% triton x-100 in DI water was used as the 100% lysis control and a second column with PBS (with 2% DMSO) served as the 0% lysis control. After incubation at 37°C for 1h the plates were centrifuged (2,000 RPM, 5 min) and 25 µL of the supernatant was added to 100 µL DI water in a flat-bottom 96-wells plate (polystyrene). […]

Row | SMILES | Result with antagonist C55-PP (C55-PP) | Effect of adding C55-PP on antibiotic activity (C55-PP) | Result with antagonist C15-P [1] | Hemolysis (Sheep blood)
1 | CCCCCCCCCCNC(=O)CNC(=O)[C@H]1CSCc2cc3cc(c2)CSC[C@@H](NC(=O)[C@@H](CC(C)C)NC(=O)[C@@H](CC(C)C)NC(=O)[C@@H](CCCNC(=N)N)NC(=O)[C@@H](CCC(N)=O)NC(=O)[C@@H](CC(C)C)NC(=O)[C@@H](CC(C)C)NC(=O)[C@H](NC(=O)[C@@H](C)N)CSC3)C(=O)N2CCC[C@@H]2C(=O)N[C@H](Cc2ccc(O)cc2)C(=O)N[C@H](CO)C(=O)N[C@H]([C@H](C)O)C(=O)N[C@H](Cc2c[nH]cn2)C(=O)N[C@H](C)C(=O)N1 [P8-D-(S6R, R15A)-C10] (H-[dA][dC][dL][dL][dQ][dR][dL][dL][dC][dP][dY][dS][dT][dH][dA][dC]G-NHDecyl; linker 2-9-16 via TBMB; N-terminus assumed) | + | complete loss of antibiotic activity | - | 0%
2 | CCCCCCCCCCNC(=O)CNC(=O)[C@@H]1CSCc2cc3cc(c2)CSC[C@H](NC(=O)[C@H](CC(C)C)NC(=O)[C@H](CC(C)C)NC(=O)[C@H](CCCNC(=N)N)NC(=O)[C@H](CCC(N)=O)NC(=O)[C@H](CC(C)C)NC(=O)[C@H](CC(C)C)NC(=O)[C@@H](NC(=O)[C@H](C)N)CSC3)C(=O)N2CCC[C@H]2C(=O)N[C@@H](Cc2ccc(O)cc2)C(=O)N[C@@H](CO)C(=O)N[C@@H]([C@@H](C)O)C(=O)N[C@@H](Cc2c[nH]cn2)C(=O)N[C@@H](C)C(=O)N1 [P8-L-(S6R, R15A)-C10] (H-ACLLQRLLCPYSTHACG-NHDecyl; linker 2-9-16 via TBMB; N-terminus assumed) | + | complete loss of antibiotic activity | - | 0%
